Data from patent US20130035326A1 (AMBIT BIOSCIENCES CORPORATION, priority 2009, published 2013).

Legend:
[1] = target: T1, FLT3 kinase (Homo sapiens, UniProt P36888); assay: Competition binding assay, FLT3 Kd
T1 construct: made in house; host or cells: T7 phage display or HEK-293 cells
T1 sequence (P36888 27-993): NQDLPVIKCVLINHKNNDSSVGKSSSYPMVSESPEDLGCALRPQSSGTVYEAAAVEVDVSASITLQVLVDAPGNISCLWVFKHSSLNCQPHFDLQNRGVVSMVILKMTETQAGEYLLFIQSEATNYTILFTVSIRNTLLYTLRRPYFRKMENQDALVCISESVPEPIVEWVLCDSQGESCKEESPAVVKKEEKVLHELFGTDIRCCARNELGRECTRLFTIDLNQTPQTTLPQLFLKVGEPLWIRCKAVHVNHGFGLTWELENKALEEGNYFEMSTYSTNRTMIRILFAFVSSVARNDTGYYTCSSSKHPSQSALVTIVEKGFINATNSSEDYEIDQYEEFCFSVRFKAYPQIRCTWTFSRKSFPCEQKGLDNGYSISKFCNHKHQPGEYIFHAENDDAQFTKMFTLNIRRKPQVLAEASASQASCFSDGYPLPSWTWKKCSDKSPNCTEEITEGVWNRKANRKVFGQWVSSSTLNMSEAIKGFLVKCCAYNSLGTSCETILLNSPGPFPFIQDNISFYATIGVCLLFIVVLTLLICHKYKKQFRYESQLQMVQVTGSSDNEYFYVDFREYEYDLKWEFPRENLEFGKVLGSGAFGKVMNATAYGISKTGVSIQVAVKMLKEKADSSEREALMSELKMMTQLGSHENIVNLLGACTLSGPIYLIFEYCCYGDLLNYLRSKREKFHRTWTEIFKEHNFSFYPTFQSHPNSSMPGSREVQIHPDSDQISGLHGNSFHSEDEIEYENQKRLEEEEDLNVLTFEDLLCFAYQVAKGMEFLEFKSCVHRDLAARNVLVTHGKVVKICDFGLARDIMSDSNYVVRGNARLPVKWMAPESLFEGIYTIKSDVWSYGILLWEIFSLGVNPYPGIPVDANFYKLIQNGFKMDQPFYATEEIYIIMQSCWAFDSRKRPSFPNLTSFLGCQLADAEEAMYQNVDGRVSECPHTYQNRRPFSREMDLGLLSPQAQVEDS
Experimental: (§1) In certain embodiments, competition binding assays were performed as described in Fabian et al., Nature Biotechnology 2005, 23,329-336.
(§2) Competition binding assays used herein were developed, validated and performed as described in Fabian et al., Nature Biotechnology 2005, 23,329-336. Kinases were produced as fusions to T7 phage (See, Fabian et al. or WO04/015142) or alternatively, the kinases were expressed in HEK-293 cells and subsequently tagged with DNA for PCR detection (See, WO08/005,310). For the binding assays, streptavidin-coated magnetic beads were treated with biotinylated affinity ligands for 30 min at room temperature to generate affinity resins. The liganded beads were blocked with excess biotin and washed with blocking buffer (SeaBlock (Pierce), 1% BSA, 0.05% Tween 20, 1 mM DTT) to remove unbound ligand and to reduce non-specific binding. Binding reactions were assembled by combining kinase, liganded affinity beads, and test compounds in 1× binding buffer (20% SeaBlock, 0.17×PBS, 0.05% Tween 20, 6 mM DTT). Test compounds were prepared as 100× stocks in DMSO and diluted into the aqueous environment. Kds were determined using an eleven point threefold serial dilutions. DMSO or control compounds were was added to control assays lacking a test compound. Primary screen assays were performed in polypropylene 384-well plates in a final volume of 20-40 μL, while Kd determinations were performed in polystyrene 96-well plates in a final volume of 135 μL. The assay plates were incubated at room temperature with shaking for 1 hour to allow the binding reactions to reach equilibrium, and the affinity beads were washed extensively with wash buffer (1×PBS, 0.05% Tween 20) to remove unbound protein. The beads were then resuspended in elution buffer (1×PBS, 0.05% Tween 20, 0.5 μM non-biotinylated affinity ligand) and incubated at room temperature with shaking for 30 min. The kinase concentration in the eluates was measured by quantitative PCR.

[2] = target: T2, CSF-1R kinase (Homo sapiens, UniProt P07333); assay: Competition binding assay, CSF-1R Kd
T2 construct: made in house; host or cells: T7 phage display or HEK-293 cells
T2 sequence (P07333 20-972): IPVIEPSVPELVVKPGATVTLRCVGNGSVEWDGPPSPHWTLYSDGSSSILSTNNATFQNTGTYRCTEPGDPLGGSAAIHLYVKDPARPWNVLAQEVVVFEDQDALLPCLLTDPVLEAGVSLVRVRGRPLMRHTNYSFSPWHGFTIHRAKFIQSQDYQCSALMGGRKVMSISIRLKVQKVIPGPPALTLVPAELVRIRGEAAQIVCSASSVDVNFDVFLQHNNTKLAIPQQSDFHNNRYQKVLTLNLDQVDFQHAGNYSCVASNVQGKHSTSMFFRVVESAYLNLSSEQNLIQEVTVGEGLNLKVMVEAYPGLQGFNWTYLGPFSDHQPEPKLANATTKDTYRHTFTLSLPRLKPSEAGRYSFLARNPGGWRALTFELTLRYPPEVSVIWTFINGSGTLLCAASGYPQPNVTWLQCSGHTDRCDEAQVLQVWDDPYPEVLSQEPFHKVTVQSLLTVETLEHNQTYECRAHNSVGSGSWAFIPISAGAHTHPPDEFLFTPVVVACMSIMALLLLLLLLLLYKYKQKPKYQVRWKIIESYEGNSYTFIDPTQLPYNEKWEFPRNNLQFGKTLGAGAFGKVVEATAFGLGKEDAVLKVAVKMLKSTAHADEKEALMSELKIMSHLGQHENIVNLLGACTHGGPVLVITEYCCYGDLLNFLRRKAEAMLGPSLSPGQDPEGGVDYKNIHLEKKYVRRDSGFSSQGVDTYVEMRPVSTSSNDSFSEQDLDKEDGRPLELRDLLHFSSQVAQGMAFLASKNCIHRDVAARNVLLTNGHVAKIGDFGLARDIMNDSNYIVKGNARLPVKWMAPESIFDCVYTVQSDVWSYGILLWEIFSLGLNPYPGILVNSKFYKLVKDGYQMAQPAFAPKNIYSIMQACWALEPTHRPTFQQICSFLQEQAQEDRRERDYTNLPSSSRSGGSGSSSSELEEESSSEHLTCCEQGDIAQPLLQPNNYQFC
Experimental: as §1, §2

[3] = target: T3, KIT kinase (Homo sapiens, UniProt P10721); assay: Competition binding assay, KIT Kd
T3 construct: made in house; host or cells: T7 phage display or HEK-293 cells
T3 sequence (P10721 26-976): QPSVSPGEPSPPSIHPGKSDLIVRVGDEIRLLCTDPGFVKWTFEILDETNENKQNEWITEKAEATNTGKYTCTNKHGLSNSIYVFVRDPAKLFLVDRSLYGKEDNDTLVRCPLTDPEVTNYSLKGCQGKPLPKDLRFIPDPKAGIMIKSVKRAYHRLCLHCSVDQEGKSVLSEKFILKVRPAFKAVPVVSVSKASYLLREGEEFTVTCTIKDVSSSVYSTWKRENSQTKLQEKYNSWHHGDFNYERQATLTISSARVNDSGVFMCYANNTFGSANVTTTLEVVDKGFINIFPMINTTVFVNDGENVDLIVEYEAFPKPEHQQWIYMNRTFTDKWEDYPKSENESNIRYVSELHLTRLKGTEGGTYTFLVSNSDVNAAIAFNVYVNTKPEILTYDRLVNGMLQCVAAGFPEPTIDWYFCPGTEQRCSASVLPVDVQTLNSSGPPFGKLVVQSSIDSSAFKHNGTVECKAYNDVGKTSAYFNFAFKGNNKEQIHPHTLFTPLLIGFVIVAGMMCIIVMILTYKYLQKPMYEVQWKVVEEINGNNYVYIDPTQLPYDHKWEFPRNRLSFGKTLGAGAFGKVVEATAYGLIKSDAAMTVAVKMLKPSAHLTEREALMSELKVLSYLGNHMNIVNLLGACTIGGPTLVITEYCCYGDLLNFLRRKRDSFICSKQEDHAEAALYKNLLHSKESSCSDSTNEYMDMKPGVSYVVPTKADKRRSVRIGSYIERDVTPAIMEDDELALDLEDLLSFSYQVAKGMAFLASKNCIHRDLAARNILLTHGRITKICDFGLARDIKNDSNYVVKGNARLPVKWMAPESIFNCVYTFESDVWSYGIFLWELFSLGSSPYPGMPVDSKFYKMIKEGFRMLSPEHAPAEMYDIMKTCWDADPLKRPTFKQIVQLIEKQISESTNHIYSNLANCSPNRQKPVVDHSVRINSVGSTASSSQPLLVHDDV
Experimental: as §1, §2

[4] = test system: MV4-11 cells; assay: MV4-11 cell proliferation assay (Alamar Blue); format: cell-based; conditions: Homo sapiens, MV4-11, 72 h, 3 days incubation
Experimental: The compounds disclosed herein were tested in an MV4-11 cell proliferation assay to determine their cellular potency against Flt3. MV4-11 cells carry ITD mutation within juxtamembrane domain of Flt3 kinase which renders the kinase constitutively active. […] This assay measures the potency of compounds as Flt3 inhibitors by measuring the reduction of Alamar Blue reagent by viable cells.
MV4-11 cells were grown in an incubator at 37° C. under 5% CO2 in Iscove's media (Celgro) with 10% FBS. The cell density was kept between 1e5 and 8e5 cells/mL.
On day one of the experiment, cells were harvested and spun at 500 g for 5 min at 4° C., the supernatant aspirated and the cells resuspended in Iscove's media with 0.5% FBS. Cell density was maintained at 7.5e5 to achieve maximum viability of the cells. The resuspended cells were incubated at 37° C. in 5% CO2 overnight.
On day two of the experiment, cells were diluted to 6.4e5/mL with Iscove's media with 0.5% FBS. 100 μL of the cell suspension (64,000 cells) were aliquoted into each well of a 96-well TC-treated plate. Compounds were added at 9 different concentrations, with half-log intervals alongside a control reference compound serving as a positive control. Final DMSO concentration was kept at 0.5% and final volume at 200 μL. The cells were then incubated at 37° C. under 5% CO2 for 3 days.
On day five of the experiment, 40 μL of Alamar Blue reagent was added to each well and the mixture was allowed to incubate for 3 hours. Alamar Blue fluorescence was measured using SoftMax Pro software at 560 nm (excitation) and 590 nm (emission). IC50s were generated as an average of duplicates and represents the concentration of test compound that achieves 50% inhibition of cellular proliferation compared to negative control.

Structure (SMILES) | Kd [1] | Kd [2] | Kd [3] | IC50 [4]
CC(C)(CO)c1cc(NC(=O)Nc2ccc(-c3ccc(N)nc3)cc2)on1 [Example 81, 5-(4-(3-(3-(1-hydroxy-2-methylpropan-2-yl)isoxazol-5-yl)ureido)phenyl)pyridin-2-aminium methanesulfonate] | 0.001 to 0.01 µM | ≤ 0.01 µM | 0.001 to 0.01 µM | 0.01 to 0.1 µM
Cn1nc(C(C)(C)CO)cc1NC(=O)Nc1ccc(-c2ccc(N)nc2)cc1 [Example 82, 5-(4-(3-(3-(1-hydroxy-2-methylpropan-2-yl)-1-methyl-1H-pyrazol-5-yl)ureido)phenyl)pyridin-2-aminium methanesulfonate] | 0.001 to 0.01 µM | 0.01 to 0.1 µM | 0.001 to 0.01 µM | 0.1 to 0.5 µM
CC(C)(CO)c1cc(NC(=O)Cc2ccc(-c3ccc(N)nc3)cc2)on1 [Example 83, 5-(4-(2-((3-(1-hydroxy-2-methylpropan-2-yl)isoxazol-5-yl)amino)-2-oxoethyl)phenyl)pyridin-2-aminium methanesulfonate] | ≤ 0.001 µM | ≤ 0.01 µM | 0.001 to 0.01 µM | 0.01 to 0.1 µM
CC(C)(C)c1cc(NC(=O)Cc2ccc(-c3ccc(N)nc3)cc2)on1 [Example 84, 5-(4-(2-(3-tert-butylisoxazol-5-ylamino)-2-oxoethyl)phenyl)pyridin-2-aminium methanesulfonate] | ≤ 0.001 µM | ≤ 0.01 µM | 0.001 to 0.01 µM | ≤ 0.001 µM
Cc1cc(-c2ccc(CC(=O)Nc3cc(C(C)(C)C)on3)cc2)cnc1N [Example 85, 5-(4-(2-(5-tert-butylisoxazol-3-ylamino)-2-oxoethyl)phenyl)-3-methylpyridin-2-aminium methanesulfonate] | ≤ 0.001 µM | ≤ 0.01 µM | 0.001 to 0.01 µM | ≤ 0.001 µM
Cc1cc(N)ncc1-c1ccc(CC(=O)Nc2cc(C(C)(C)C)on2)cc1 [Example 86, 5-(4-(2-(5-tert-butylisoxazol-3-ylamino)-2-oxoethyl)phenyl)-4-methylpyridin-2-aminium methanesulfonate] | ≤ 0.001 µM | 0.01 to 0.1 µM | 0.001 to 0.01 µM | 0.01 to 0.1 µM
Cc1nc(N)ccc1-c1ccc(CC(=O)Nc2cc(C(C)(C)C)on2)cc1 [Example 87, 5-(4-(2-(5-tert-butylisoxazol-3-ylamino)-2-oxoethyl)phenyl)-6-methylpyridin-2-aminium methanesulfonate] | ≤ 0.001 µM | 0.01 to 0.1 µM | 0.001 to 0.01 µM | 0.01 to 0.1 µM
CC(C)(CO)c1cc(NC(=O)Cc2ccc(-c3ccc(N)nc3)cc2)no1 [Example 88, 5-(4-(2-(5-(1-hydroxy-2-methylpropan-2-yl)isoxazol-3-ylamino)-2-oxoethyl)phenyl)pyridin-2-aminium methanesulfonate] | ≤ 0.001 µM | 0.01 to 0.1 µM | 0.001 to 0.01 µM | 0.001 to 0.01 µM
COCCNc1ccc(-c2ccc(CC(=O)Nc3cc(C(C)(C)C)on3)cc2)cn1 [Example 89, 5-(4-(2-(5-tert-butylisoxazol-3-ylamino)-2-oxoethyl)phenyl)-N-(2-methoxyethyl)pyridin-2-aminium methanesulfonate] | ≤ 0.001 µM | ≤ 0.01 µM | 0.001 to 0.01 µM | 0.001 to 0.01 µM
Cn1nc(C(C)(C)CF)cc1NC(=O)Nc1ccc(-c2ccc(N)nc2)cc1 [Example 90, 5-(4-(3-(3-(1-fluoro-2-methylpropan-2-yl)-1-methyl-1H-pyrazol-5-yl)ureido)phenyl)pyridin-2-aminium acetate] | 0.001 to 0.01 µM | 0.01 to 0.1 µM | 0.001 to 0.01 µM | 0.1 to 0.5 µM
CC(C)(C)c1cc(NC(=O)Cc2ccc(-c3cnc(N)c(C#N)c3)cc2)no1 [Example 93, 5-(4-(2-(5-tert-butylisoxazol-3-ylamino)-2-oxoethyl)phenyl)-3-cyanopyridin-2-aminium methanesulfonate] | 0.001 to 0.01 µM | ≤ 0.01 µM | 0.001 to 0.01 µM | ≤ 0.001 µM
CC(C)(C)c1cc(NC(=O)Cc2ccc(-c3cnc(N)c(C(N)=O)n3)cc2)no1 [Example 114, 5-(4-(2-(5-tert-butylisoxazol-3-ylamino)-2-oxoethyl)phenyl)-3-carbamoylpyrazin-2-aminium methanesulfonate] | ≤ 0.001 µM | ≤ 0.01 µM | ≤ 0.001 µM | ≤ 0.001 µM
CC(C)(C)c1cc(NC(=O)Cc2ccc(-c3cnc4c(c3)CCCN4)cc2)no1 [Example 120, 6-(4-(2-((5-(tert-butyl)isoxazol-3-yl)amino)-2-oxoethyl)phenyl)-1,2,3,4-tetrahydro-1,8-naphthyridin-1-ium methanesulfonate] | ≤ 0.001 µM | ≤ 0.01 µM | 0.001 to 0.01 µM | 0.001 to 0.01 µM
CS(=O)(=O)O.Nc1ncc(-c2ccc(CC(=O)Nc3cc(C4(C(F)(F)F)CC4)on3)cc2)cc1F [Example 127, 3-fluoro-5-(4-(2-oxo-2-(5-(1-(trifluoromethybcyclopropybisoxazol-3-ylamino)ethyl)phenyl)pyridin-2-aminium methanesulfonate] | ≤ 0.001 µM | ≤ 0.01 µM | 0.001 to 0.01 µM | ≤ 0.001 µM
CC(C)(C)c1cc(NC(=O)Cc2ccc(-c3ccc(N)nc3C(F)(F)F)cc2)no1.CS(=O)(=O)O [Example 129, 5-(4-(2-(5-tert-butylisoxazol-3-ylamino)-2-oxoethyl)phenyl)-6-(trifluoromethybpyridin-2-aminium methanesulfonate] | 0.01 to 0.1 µM | > 0.5 µM | 0.01 to 0.1 µM | 0.1 to 0.5 µM
CS(=O)(=O)O.Cc1cc(-c2ccc(CC(=O)Nc3cc(C4(C(F)(F)F)CC4)on3)cc2)cnc1N [Example 130, 3-methyl-5-(4-(2-oxo-2-(5-(1-(trifluoromethybcyclopropybisoxazol-3-ylamino)ethyl)phenyl)pyridin-2-aminium methanesulfonate] | ≤ 0.001 µM | ≤ 0.01 µM | 0.001 to 0.01 µM | ≤ 0.001 µM
Cn1cc(-c2cc(-c3ccc(CC(=O)Nc4cc(C(C)(C)C)on4)cc3)cnc2N)cn1 [Example 154] | ≤ 0.001 µM | 0.01 to 0.1 µM | 0.001 to 0.01 µM | 0.001 to 0.01 µM
